According to patent US9273057B2 (Bristol-Myers Squibb Company, priority 2012, dated 2016):

What follows are compounds tested against CK2A1 (CK2α/β) (Homo sapiens, UniProt P68400) (assay: CK2 kinase assay, CK2A1 (CK2α/β)). Settings: Table A; read-out: CK2A1 (CK2α/β) (IC50).
Assay type: biochemical

Chain of CK2A1 (CK2α/β) (P68400 whole entry, species assumed): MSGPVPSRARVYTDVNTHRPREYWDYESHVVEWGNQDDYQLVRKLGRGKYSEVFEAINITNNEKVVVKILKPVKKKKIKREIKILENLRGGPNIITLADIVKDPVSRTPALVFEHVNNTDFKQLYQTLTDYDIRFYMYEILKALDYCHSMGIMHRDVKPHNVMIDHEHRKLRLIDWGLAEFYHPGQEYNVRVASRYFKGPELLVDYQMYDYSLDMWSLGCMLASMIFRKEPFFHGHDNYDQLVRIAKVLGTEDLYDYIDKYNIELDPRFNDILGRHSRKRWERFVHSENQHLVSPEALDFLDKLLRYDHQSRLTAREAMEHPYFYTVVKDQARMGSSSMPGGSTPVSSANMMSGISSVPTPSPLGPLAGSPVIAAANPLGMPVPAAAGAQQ
Chain of CK2A1 (CK2α/β) (P67870 whole entry partner, species assumed): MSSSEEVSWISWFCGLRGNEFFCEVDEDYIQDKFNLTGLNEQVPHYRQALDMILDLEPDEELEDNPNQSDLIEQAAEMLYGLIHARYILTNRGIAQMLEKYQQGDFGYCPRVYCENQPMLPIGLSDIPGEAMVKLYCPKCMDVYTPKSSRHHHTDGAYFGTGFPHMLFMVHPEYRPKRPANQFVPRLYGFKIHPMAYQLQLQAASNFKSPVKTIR

IC50 [nM] | SMILES
2.69 | COC(=O)N1CC(N2CCN(c3cc(C#N)cc(Nc4nc(NC5CC5)c5ncc(C#N)n5n4)c3Cl)CC2)C1 [Example 53, methyl 3-(4-(2-chloro-5-cyano-3-((7-cyano-4-(cyclopropylamino)imidazo[2,1-f][1,2,4]triazin-2-yl)amino)phenyl)-1-piperazinyl)-1-azetidinecarboxylate]
1.14 | COCCN1CCN(c2cc(C#N)cc(Nc3nc(NC4CC4)c4ncc(C#N)n4n3)c2Cl)CC1 [Example 56]
0.96 | COCCN1CC(N2CCN(c3cc(C#N)cc(Nc4nc(NC5CC5)c5ncc(C#N)n5n4)c3Cl)CC2)C1 [Example 61, 2-((2-chloro-5-cyano-3-(4-(1-(2-methoxyethyl)-3-azetidinyl)-1-piperazinyl)phenyl)amino)-4-(cyclopropylamino) imidazo[2,1-f][1,2,4] triazine-7-carbonitrile]
3.02 | N#Cc1cc(Nc2nc(NC3CC3)c3ncc(C#N)n3n2)c(Cl)c(N2CCN(C3CCC3=O)CC2)c1 (stereo not shown) [Example 62, 2-((2-chloro-5-cyano-3-(4-(2-oxocyclobutyl)piperazin-1-yl)phenyl)amino)-4-(cyclopropylamino) imidazo[2,1-f][1,2,4] triazine-7-carbonitrile]
0.7 | COCCN1CCC(N2CCN(c3cc(C#N)cc(Nc4nc(NC5CC5)c5ncc(C#N)n5n4)c3Cl)CC2)CC1 [Example 63, 2-((2-chloro-5-cyano-3-(4-(1-(2-methoxyethyl)-4-piperidinyl)-1-piperazinyl)phenyl)amino)-4-(cyclopropylamino) imidazo[2,1-f][1,2,4] triazine-7-carbonitrile]
0.48 | COC(=O)N1CCN(c2cc(C#N)cc(Nc3nc(NC4CC4)c4ncc(C#N)n4n3)c2Cl)CC1 [Example 67, methyl 4-(2-chloro-5-cyano-3-((7-cyano-4-(cyclopropylamino)imidazo[2,1-f] [1,2,4]triazin-2-yl)amino)phenyl)-1-piperazinecarboxylate]
0.67 | COCCOC(=O)N1CCN(c2cc(C#N)cc(Nc3nc(NC4CC4)c4ncc(C#N)n4n3)c2Cl)CC1 [Example 68, 2-methoxyethyl 4-(2-chloro-5-cyano-3-((7-cyano-4-(cyclopropylamino)imidazo[2,1-f] [1,2,4]triazin-2-yl)amino)phenyl)-1-piperazinecarboxylate]
0.47 | C[C@@H](CN1CCN(c2cc(C#N)cc(Nc3nc(NC4CC4)c4ncc(C#N)n4n3)c2Cl)CC1)NS(C)(=O)=O [Example 69, N-((1S)-2-(4-(2-chloro-5-cyano-3-((7-cyano-4-(cyclopropylamino)imidazo[2,1-f][1,2,4]triazin-2-yl)amino)phenyl)-1-piperazinyl)-1-methylethyl) methanesulfonamide]
0.54 | CS(=O)(=O)CCN1CC(N2CCN(c3cc(C#N)cc(Nc4nc(NC5CC5)c5ncc(C#N)n5n4)c3Cl)CC2)C1 [Example 70]
0.76 | CNCCOC(=O)N1CCN(c2cc(C#N)cc(Nc3nc(NC4CC4)c4ncc(C#N)n4n3)c2Cl)CC1 [Example 71, 2-(methylamino)ethyl 4-(2-chloro-5-cyano-3-((7-cyano-4-(cyclopropylamino)imidazo[2,1-f] [1,2,4]triazin-2-yl)amino)phenyl)-1-piperazinecarboxylate]
0.79 | CN1CC(N2CCN(c3cc(C#N)cc(Nc4nc(NC5CC5)c5ncc(C#N)n5n4)c3Cl)CC2)C1 [Example 72, 2-((2-chloro-5-cyano-3-(4-(1-methyl-3-azetidinyl)-1-piperazinyl)phenyl)amino)-4-(cyclopropylamino) imidazo[2,1-f][1,2,4] triazine-7-carbonitrile]
0.74 | CS(=O)(=O)N1CC(N2CCN(c3cc(C#N)cc(Nc4nc(NC5CC5)c5ncc(C#N)n5n4)c3Cl)CC2)C1 [Example 73]
0.55 | N#Cc1cc(Nc2nc(NC3CC3)c3ncc(C#N)n3n2)c(Cl)c(N2CCN(C(=O)C3CC3)CC2)c1 [Example 74, 2-((2-chloro-5-cyano-3-(4-(cyclopropylcarbonyl)-1-piperazinyl)phenyl)amino)-4-(cyclopropylamino) imidazo[2,1-f][1,2,4] triazine-7-carbonitrile]
